{
  "source": "patent US20240350446A1",
  "about": "“CAROTENOID SOLUTIONS AND USES THEREOF” (L.E.A.F. HOLDINGS GROUP LLC, priority 2020, published 2024)",
  "key": {"[1]": {"test": "Properties of TSC aqueous formulation (dissolution, crash-out on dilution/storage, pH, osmolality)", "type": "physicochemical", "method": "(§1) 1650 grams of sucrose was added to 51.59 Kg of WFI with mixing in a Nalgene tank containing a tank liner. 2475 grams of PEG400 was then added to the tank with mixing. After the sucrose and PEG400 were completely dissolved, 110 grams of TSC was added and the solution was mixed at room temperature for a minimum of 30 minutes or until the solution was clear. The solution was then filtered through a 0.45 μm glass fiber prefilter+0.2 μm sterile filter at a pump speed of 700 mL/min into a 100 L Biobag. A sample of the filtrate was pulled from the Biobag solution for a bioburden test. The Biobag was stored at 2-8° C. for at least 12 hours and then brought to room temperature and sterile filtered through 0.45 μm glass fiber prefilter+0.2 μm sterile filter at a pump speed of 700 mL/min to a 100 L Biobag. The sterile filtrate was then filled into amber 10R vials with a target 10.5 ml fill volume.\n(§2) All formulations could be carried out at room temperature with mixing. The dissolution of TSC was generally completed within 10 minutes. […] The solution pH is around 8.7 and no further pH adjustment was needed. The final formulation has an osmolality around 270 mOsm."}, "[2]": {"test": "Solubility of TSC in aqueous PEG400/NaCl/sucrose formulations", "type": "physicochemical", "method": "as §1\nOther exemplary TSC aqueous solutions were formulated with varying concentrations of PEG400, NaCl, sucrose and TSC concentrations.\nas §2"}},
  "data": [
    {"smiles": "CC(/C=C/C=C(\\C)C(=O)[O-])=C\\C=C\\C=C(C)\\C=C\\C=C(/C)C(=O)[O-].[Na+].[Na+]", "note": "[TSC, trans sodium crocetinate]", "values": [
      {"measurement": "dissolution of TSC, time to completion", "setting": "[1]; all formulations, room temperature with mixing", "result": "≤ 10", "unit": "min"},
      {"measurement": "TSC crash out of solution after storage", "setting": "[1]; storage at 2-8° C.", "result": "No TSC was observed to crash out"},
      {"measurement": "TSC crash out of the solution upon dilution", "setting": "[1]; ten times dilution in 0.9% saline, 2 mg/mL formulation", "result": "No TSC was observed to crash out"},
      {"measurement": "Observation (solubility)", "setting": "[2]; PEG400 2% (v/v), NaCl 0%, sucrose 0%, TSC 2 mg/mL", "result": "soluble"},
      {"measurement": "Observation (solubility)", "setting": "[2]; PEG400 4% (v/v), NaCl 0%, sucrose 0%, TSC 4 mg/mL", "result": "soluble"},
      {"measurement": "Observation (solubility)", "setting": "[2]; PEG400 4% (v/v), NaCl 0%, sucrose 3% (w/v), TSC 2 mg/mL", "result": "soluble"},
      {"measurement": "Observation (solubility)", "setting": "[2]; PEG400 4% (v/v), NaCl 0.9% (w/w), sucrose 0%, TSC 2 mg/mL (first of two identical lines)", "result": "partially soluble"},
      {"measurement": "Observation (solubility)", "setting": "[2]; PEG400 4% (v/v), NaCl 0.9% (w/w), sucrose 0%, TSC 2 mg/mL (second of two identical lines)", "result": "soluble"},
      {"measurement": "Observation (solubility)", "setting": "[2]; PEG400 4% (v/v), NaCl 0.9% (w/w), sucrose 0%, TSC 4 mg/mL", "result": "partially soluble"},
      {"measurement": "Observation (solubility)", "setting": "[2]; PEG400 6% (v/v), NaCl 0%, sucrose 0%, TSC 4 mg/mL", "result": "soluble"},
      {"measurement": "Observation (solubility)", "setting": "[2]; PEG400 8% (v/v), NaCl 0%, sucrose 0%, TSC 8 mg/mL", "result": "saturated with some"},
      {"measurement": "Observation (solubility)", "setting": "[2]; PEG400 80% (v/v), NaCl 0% (w/w), sucrose 0% (w/v), TSC 20 mg/mL", "result": "soluble"}
    ]}
  ]
}
